According to ChEMBL document CHEMBL3217618, “The use of phosphate bioisosteres in medicinal chemistry and chemical biology” (Medchemcomm, 2012):
Numbered stars: 1 amine (or outer) side, 2 acyl side, 3 side chain; on linkers, the order of the positions; unused ones are H or OH. Square brackets hold non-standard residues; d marks the D form. Peptide text beside a SMILES is read from it. X1 = NS(=O)(=O)Cc1ccc(C[C@H](N[*:1])C(=O)[*:2])cc1

Columns and labels:
[1] = molecular target: T1, Tyrosine-protein phosphatase non-receptor type 1 (Homo sapiens) (UniProt P18031); test: Inhibition of PTP1B (unknown origin) at 11 uM
T1 sequence (whole entry): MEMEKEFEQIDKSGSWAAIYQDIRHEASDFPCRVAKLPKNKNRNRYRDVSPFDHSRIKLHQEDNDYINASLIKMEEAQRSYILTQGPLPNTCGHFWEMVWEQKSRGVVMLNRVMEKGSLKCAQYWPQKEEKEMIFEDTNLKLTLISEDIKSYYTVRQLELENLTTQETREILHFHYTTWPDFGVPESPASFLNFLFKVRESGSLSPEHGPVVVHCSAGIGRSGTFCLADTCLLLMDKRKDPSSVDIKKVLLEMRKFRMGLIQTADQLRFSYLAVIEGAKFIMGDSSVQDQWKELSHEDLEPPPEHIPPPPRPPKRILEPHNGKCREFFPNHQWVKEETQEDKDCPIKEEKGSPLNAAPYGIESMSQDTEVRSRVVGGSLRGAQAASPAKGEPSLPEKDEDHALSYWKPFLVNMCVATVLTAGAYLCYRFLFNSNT

[2] = molecular target: Growth factor receptor-bound protein 2 (Homo sapiens, UniProt P62993); test: Binding affinity to SH2 domain of GRB2 (unknown origin) by surface plasmon resonance assay
[3] = Inhibition of Bacillus anthracis PIsY1
[4] = Agonist activity at INSP3R in MFF assessed as calcium influx; parameters: species or system Mus musculus
[5] = Inhibition of Yersinia pestis protein tyrosine phosphatase
[6] = Inhibition of Streptococcus pneumoniae PIsY1

Growth factor receptor-bound protein 2, sequence (P62993 whole entry, the tested form may be a part): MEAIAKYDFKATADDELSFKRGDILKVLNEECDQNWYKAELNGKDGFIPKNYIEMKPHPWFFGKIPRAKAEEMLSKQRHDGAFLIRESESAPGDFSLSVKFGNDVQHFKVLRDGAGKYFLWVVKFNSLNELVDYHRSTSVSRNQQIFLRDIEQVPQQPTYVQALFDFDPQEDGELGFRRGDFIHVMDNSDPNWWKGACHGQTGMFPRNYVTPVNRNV

With `CCCCCNC(=O)[C@H](Cc1ccc(OC(C(=O)O)C(=O)O)cc1)NC(=O)CCC(=O)O` the inhibition [1] was 80%.
`Cc1ccc2c(ccn2C[C@@H]2C/C=C\C[C@H](c3ccc(CP(C)(=O)O)cc3)[C@H](CC(=O)O)C(=O)NC3(CCCCC3)C(=O)N[C@@H](CC(N)=O)C(=O)NC2)c1` gave a Kd [2] of 0.0162 µM.
`CCCCCCCCCCCCCCCC(=O)CP(=O)(O)O` showed an IC50 [3] of 90 µM.
`COP(=O)(O)O[C@@H]1[C@@H](O)[C@H](OP(=O)(O)O)[C@H](O)[C@H](O)[C@H]1OP(=O)(O)O` gave an IC50 [4] of 9.7 µM.
In the case of `CC(=O)N[C@@H](CC(=O)O)C(=O)N[C@@H](C)C(=O)N[C@@H](CC(=O)O)C(=O)N[C@@H](CCC(=O)O)C(=O)N[C@@H](Cc1ccc(CS(N)(=O)=O)cc1)C(=O)N[C@@H](CC(C)C)C(N)=O` (Ac-DADE[X1]L-NH2), the IC50 [5] is reported as 0.37 µM.
In the case of `CCCCCC/C=C/CCCCCCCCCC(=O)NP(=O)(O)O`, the IC50 [6] is reported as 11 µM.
`CCCCCCCCCCCCCCCC(=O)C(F)(F)P(=O)(O)O` gave an IC50 [3] of 50 µM and an IC50 [6] of 39 µM.
In the case of `CCCCCCCCCCCCCCCC(=O)NS(=O)(=O)Oc1ccc(OC)cc1`, the IC50 [3] is reported as 35 µM.
Work on `CCCCCCCC/C=C/CCCCCCCC(=O)NS(=O)(=O)NCCC` yielded an IC50 [3] of 200 µM.
